Here are results for five compounds from ChEMBL document CHEMBL1154579, “Novel cytotoxic diterpenes from Casearia arborea” (J Nat Prod, 2000).

One test deals with LOX IMVI. In words: Cytotoxicity against human LOX IMVI cells after 2 days. In kind it is functional, cell-based. The conditions noted are these: 48 h.
For another test, the system named is SF-539. In words: Cytotoxicity against human SF539 cells after 2 days. The conditions noted are these: SF-539, 48 h. The test is classed as functional, cell-based.

The term IC50 denotes the point on the concentration scale where inhibition reaches its midpoint. The low end stands for greater potency in that assay, the high end for weaker potency in that assay. Consider `C=C/C(C)=C/C[C@]1(C)[C@H](C)CC[C@@]23C(=C[C@H](OC(=O)c4ccc(O)cc4)C[C@@H]12)[C@@H](OC(C)=O)O[C@H]3OC(C)=O` [CASEARBORIN A], for which the IC50 in the test on LOX IMVI and in the test with SF-539 was 290 nM each time.

Turning to `C=C/C(C)=C/C[C@]1(C)[C@H](C)CC[C@@]23C(=C[C@H](OC(=O)c4ccc(O)c(OC)c4)C[C@@H]12)[C@@H](OC(C)=O)O[C@H]3OC(C)=O` [CASEARBORIN B], the IC50 with LOX IMVI and in the test on SF-539 was 290 nM throughout.

For `C=C/C(C)=C/C[C@]1(C)[C@H](C)C[C@H](OC(=O)c2ccc(O)cc2)[C@@]23C(=C[C@H](O)C[C@@H]12)[C@@H](OC(C)=O)O[C@H]3OC(C)=O` [CASEARBORIN C], the IC50 in the test on LOX IMVI and in the test on SF-539 was 290 nM each time.

Take `C=C/C(C)=C/C[C@]1(C)[C@H](C)C[C@H](O)[C@@]23C(=C[C@H](OC(=O)c4ccc(O)cc4)C[C@@H]12)[C@@H](OC(C)=O)O[C@H]3OC(C)=O` [CASEARBORIN D]: the IC50 in the test with LOX IMVI and with SF-539 was 290 nM throughout.

Turning to `C=C/C(C)=C/C[C@]1(C)[C@H](C)C[C@H](OC(=O)c2ccc(O)cc2)[C@@]23C(=C[C@H](OC(C)=O)C[C@@H]12)[C@@H](OC(C)=O)O[C@H]3OC(C)=O` [CASEARBORIN E], the IC50 in the test with LOX IMVI and in the test with SF-539 was 290 nM in each case.
